Measured values: publication PMC4684994 (Journal of immunology (Baltimore, Md. : 1950), 2015)

Key:
[1] = biological target: T1, TRPV4 (transient receptor potential vanilloid 4) (Mus musculus, UniProt Q9EPK8); experiment: Inhibition of GSK1016790A-induced calcium influx; format: cell-based
[2] = biological target: T1, TRPV4 (transient receptor potential vanilloid 4); experiment: Calcium influx; format: cell-based

T1 sequence (Q9EPK8 whole entry): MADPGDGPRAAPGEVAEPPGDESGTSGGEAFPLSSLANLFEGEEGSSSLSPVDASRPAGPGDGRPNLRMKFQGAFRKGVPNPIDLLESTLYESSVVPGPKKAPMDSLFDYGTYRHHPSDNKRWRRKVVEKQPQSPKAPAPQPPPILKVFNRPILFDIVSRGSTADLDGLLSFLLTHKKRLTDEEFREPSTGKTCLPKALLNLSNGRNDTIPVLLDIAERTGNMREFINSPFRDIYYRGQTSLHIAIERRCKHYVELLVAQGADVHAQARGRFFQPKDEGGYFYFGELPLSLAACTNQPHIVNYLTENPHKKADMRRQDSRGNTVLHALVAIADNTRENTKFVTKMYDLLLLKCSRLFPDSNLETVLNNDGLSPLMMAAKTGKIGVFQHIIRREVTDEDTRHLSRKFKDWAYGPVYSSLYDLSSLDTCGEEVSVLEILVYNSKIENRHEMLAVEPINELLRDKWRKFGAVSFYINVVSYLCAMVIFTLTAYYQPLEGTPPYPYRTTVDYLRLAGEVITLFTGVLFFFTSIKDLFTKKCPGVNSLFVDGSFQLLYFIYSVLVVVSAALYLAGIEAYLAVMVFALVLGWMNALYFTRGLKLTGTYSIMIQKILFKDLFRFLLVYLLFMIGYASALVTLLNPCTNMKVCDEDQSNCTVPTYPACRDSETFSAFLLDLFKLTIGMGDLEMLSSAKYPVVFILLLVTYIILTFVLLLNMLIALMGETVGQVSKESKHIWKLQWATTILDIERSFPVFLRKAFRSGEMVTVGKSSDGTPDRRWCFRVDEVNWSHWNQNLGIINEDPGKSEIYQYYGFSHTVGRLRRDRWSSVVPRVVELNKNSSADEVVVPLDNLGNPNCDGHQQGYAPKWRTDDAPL

| SMILES | IC50 [1] [µM] | EC50 [2] [µM] |
| --- | --- | --- |
| Cc1c(C(=O)Nc2cccc(C(F)(F)F)c2)cc(-c2ccccc2)n1CCCN1CCOCC1 [HC, HC067047] | 7 |  |
| CC(C)C[C@H](NC(=O)c1cc2ccccc2s1)C(=O)N1CCN(C(=O)[C@H](CO)NS(=O)(=O)c2ccc(Cl)cc2Cl)CC1 [GSK, GSK1016790A] |  | 0.05 |
